# Test results reported in patent publication US20240226130A1, “4'-THIONUCLEOSIDE ANALOGUES AND THEIR PHARMACEUTICAL USE” (Gilead Sciences, Inc., priority 2022, published 2024).
# Columns and labels:
# DNA polymerase γ = DNA polymerase γ (Homo sapiens (Human), UniProt P54098); assay: DNA polymerase γ single nucleotide incorporation (SNI) rate assay; format: biochemical; details: incorporation rate as a percentage relative to the corresponding natural dNTP; 50 μM analog
# Procedure: Example 12: DNA Polymerase γ Single Nucleotide Incorporation (SNI) Rate Assay
# The DNA polymerase (pol) γ SNI assay utilized an annealed ^32P labeled primer-template complex of D19 [5′-G TCC CTG TTC GGG CGC CAC-3′] and D36 A/G/T/C [3′-CGACCGTCCAGGGACAAGCCCGCG (TGT/CGT/ACG/GCG) ATC TCT-5′] where the templating base was chosen to base pair to the natural dNTP and analogs assayed. 20 nM DNA pol γ large subunit and 100 nM pol γ accessory subunit were preincubated on ice for 5 minutes and added to reaction mix containing 50 mM Tris-Cl pH 8.0, 5 mM DTT, 0.2 mg/mL bSA, 200 nM D19/D36 mer and 10 mM MgCl2. […] The substrate and the incorporation products, D19 and D20-28, were quantified using a Typhoon Trio Imager and Image Quant TL Software. The nucleotide incorporation rate was calculated in Prism by fitting the product formation using the single exponential equation: [D20]=A*(1−e−k*t), where [D20] represents the amount (in nM) of the elongated product formed, t represents the reaction time, k represents the observed rate, and A represents the amplitude of the exponential. […]
# DNA polymerase α = DNA polymerase α (Homo sapiens (Human), UniProt P09884); assay: DNA polymerase α single nucleotide incorporation (SNI) rate assay; format: biochemical; details: incorporation rate as a percentage relative to the corresponding natural dNTP; 50 μM analog
# Procedure: Example 13: DNA Polymerase a Single Nucleotide Incorporation (SNI) Rate Assay
# The DNA polymerase (pol) a SNI assay utilized an annealed ^32P labeled primer-template complex of D19 [5′-G TCC CTG TTC GGG CGC CAC-3′] and D36 A/G/T/C [3′-CGACCGTCCAGGGACAAGCCCGCG (TGT/CGT/ACG/GCG) ATC TCT-5′] where the templating base was chosen to base pair to the natural dNTP and analogs assayed. Reactions containing 50 mM Tris-Cl pH 8.0, 5 mM DTT, 0.2 mg/mL bSA, 200 nM D19/D36 mer and 10 mM MgCl2 and 5 nM DNA pol a were heated to 37° C. and initiated by addition of 50 μM (final) natural dNTP or analogs. At 0, 5, 10, 20, 40, and 60 min, 10 μL of the reaction mixture was removed and quenched with 10 μL of a gel loading buffer containing 100 mM EDTA, 80% formamide and bromophenol blue, and heated at 65° C. for 5 minutes. The samples were run on a 20% polyacrylamide gel (8 M urea) and the gel was exposed to a phosphorimager screen. The substrate and the incorporation products, D19 and D20-28, were quantified using a Typhoon Trio Imager and Image Quant TL Software. The nucleotide incorporation rate was calculated in Prism by fitting the product formation using the single exponential equation: [D20]=A*(1−e−k*t), where [D20] represents the amount (in nM) of the elongated product formed, t represents the reaction time, k represents the observed rate, and A represents the amplitude of the exponential. […]
# [1] = Rhesus pharmacokinetic study, intravenous compound 7 (plasma and PBMC); details: for Intracellular concentration in PBMC: LOQ 2.5 μM compound 7, 0.63 μM triphosphate
# Procedure: Male Indian Origin Rhesus Monkeys were used for the pharmacokinetic studies. Studies were conducted under a protocol approved by IACUC. […] The intravenous dose was administered as an approximately 30-minute infusion, and after dose administration the dose apparatus was flushed with approximately 1 mL saline before removal from the animal. Food was returned 4 hours after dosing. […] The K2EDTA tubes were kept chilled at approximately 5° C. until centrifugation (4° C., 5 minutes, 2000×g) to collect plasma. Centrifugation began within 1 hour of collection. Plasma samples were harvested, placed in micronic tubes, and maintained on dry ice prior to storage at −70° C. until analysis by LC-MS/MS. […] The sodium citrate tubes were then gently inverted 3-4 times and stored upright at ambient temperature until centrifugation to collect PBMCs. Centrifugation began as soon as possible following collection, within 6 hours after collection. The PBMCs were separated by centrifugation (30 minutes at 1500×g-1800×g, 18-20° C.), washed once with ice cold 0.9% NaCl and treated with red blood cell lysis buffer (3.5 g ammonium chloride and 0.036 g ammonium carbonate in 500 mL ultrapure water, prepared before first blood collection) for 10 minutes at ambient temperature. Subsequently the cells were washed twice with ice cold 0.9% NaCl, the cell pellet resuspended in ice cold RIPA buffer (fortified with Pierce protease ad phosphatase inhibitor tablet), snap frozen in liquid nitrogen, and maintained at −70° C. until analysis by LC-MS/MS.
# [2] = Rhesus pharmacokinetic study, oral compound 7 (plasma and PBMC); details: for Intracellular concentration in PBMC: LOQ 0.16 μM compound 7, 0.04 μM triphosphate
# Procedure: The oral dose was administered via oral gavage, and after dose administration the dose apparatus was flushed with approximately 10 mL water before removal from the animal. Food was returned 4 hours after dosing. […] The K2EDTA tubes were kept chilled at approximately 5° C. until centrifugation (4° C., 5 minutes, 2000×g) to collect plasma. Centrifugation began within 1 hour of collection. Plasma samples were harvested, placed in micronic tubes, and maintained on dry ice prior to storage at −70° C. until analysis by LC-MS/MS. […] The sodium citrate tubes were then gently inverted 3-4 times and stored upright at ambient temperature until centrifugation to collect PBMCs. Centrifugation began as soon as possible following collection, within 6 hours after collection. The PBMCs were separated by centrifugation (30 minutes at 1500×g-1800×g, 18-20° C.), washed once with ice cold 0.9% NaCl and treated with red blood cell lysis buffer (3.5 g ammonium chloride and 0.036 g ammonium carbonate in 500 mL ultrapure water, prepared before first blood collection) for 10 minutes at ambient temperature. Subsequently, the cells were washed twice with ice cold 0.9% NaCl and the cell pellet maintained at −70° C. until analysis by LC-MS/MS.
# Sequence of DNA polymerase γ (P54098 whole entry, looked up): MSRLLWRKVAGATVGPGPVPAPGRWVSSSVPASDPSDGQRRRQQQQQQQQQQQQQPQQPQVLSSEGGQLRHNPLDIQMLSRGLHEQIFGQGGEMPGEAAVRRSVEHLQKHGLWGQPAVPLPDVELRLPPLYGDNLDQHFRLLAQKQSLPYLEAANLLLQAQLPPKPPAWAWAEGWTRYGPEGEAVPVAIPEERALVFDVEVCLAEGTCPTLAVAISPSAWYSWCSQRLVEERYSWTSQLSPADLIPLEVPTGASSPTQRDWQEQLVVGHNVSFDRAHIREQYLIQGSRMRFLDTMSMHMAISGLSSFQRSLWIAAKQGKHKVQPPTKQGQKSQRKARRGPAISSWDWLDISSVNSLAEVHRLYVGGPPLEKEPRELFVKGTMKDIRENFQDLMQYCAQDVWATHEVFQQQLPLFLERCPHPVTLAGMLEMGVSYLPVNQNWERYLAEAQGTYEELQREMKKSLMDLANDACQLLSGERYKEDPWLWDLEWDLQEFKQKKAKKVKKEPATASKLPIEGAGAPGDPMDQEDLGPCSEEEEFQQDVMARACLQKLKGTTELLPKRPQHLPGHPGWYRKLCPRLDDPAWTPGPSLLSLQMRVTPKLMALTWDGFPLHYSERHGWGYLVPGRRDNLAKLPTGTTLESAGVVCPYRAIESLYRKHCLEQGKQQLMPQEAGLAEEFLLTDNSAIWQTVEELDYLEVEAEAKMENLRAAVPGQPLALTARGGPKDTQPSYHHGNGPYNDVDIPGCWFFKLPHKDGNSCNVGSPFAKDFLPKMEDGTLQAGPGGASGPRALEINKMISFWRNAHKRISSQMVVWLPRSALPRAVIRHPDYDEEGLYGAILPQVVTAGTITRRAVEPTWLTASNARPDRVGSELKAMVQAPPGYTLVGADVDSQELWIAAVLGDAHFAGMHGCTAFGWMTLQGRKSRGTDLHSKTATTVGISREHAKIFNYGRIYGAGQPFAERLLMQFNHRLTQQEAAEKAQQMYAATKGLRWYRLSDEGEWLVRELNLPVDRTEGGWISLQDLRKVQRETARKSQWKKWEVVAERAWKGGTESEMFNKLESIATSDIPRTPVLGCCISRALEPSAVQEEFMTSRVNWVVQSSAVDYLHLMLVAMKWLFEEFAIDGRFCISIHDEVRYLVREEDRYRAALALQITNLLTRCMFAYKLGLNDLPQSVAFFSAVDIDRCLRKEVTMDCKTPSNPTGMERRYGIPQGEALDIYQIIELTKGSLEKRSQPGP
# Sequence of DNA polymerase γ (Q9UHN1 whole entry partner, looked up): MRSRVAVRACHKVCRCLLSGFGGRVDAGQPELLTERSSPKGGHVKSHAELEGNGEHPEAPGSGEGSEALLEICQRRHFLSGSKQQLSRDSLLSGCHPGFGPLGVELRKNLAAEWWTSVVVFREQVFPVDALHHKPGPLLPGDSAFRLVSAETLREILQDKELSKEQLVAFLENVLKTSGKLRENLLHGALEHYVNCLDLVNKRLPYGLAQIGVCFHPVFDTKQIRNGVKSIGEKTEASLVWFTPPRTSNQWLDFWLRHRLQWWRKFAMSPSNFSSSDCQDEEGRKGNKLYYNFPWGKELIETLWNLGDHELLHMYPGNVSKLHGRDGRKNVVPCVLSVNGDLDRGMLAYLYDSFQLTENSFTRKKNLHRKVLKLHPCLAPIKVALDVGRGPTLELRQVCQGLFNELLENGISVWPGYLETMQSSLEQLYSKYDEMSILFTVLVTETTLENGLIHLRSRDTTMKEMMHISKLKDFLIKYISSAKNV
# Sequence of DNA polymerase α (P09884 whole entry): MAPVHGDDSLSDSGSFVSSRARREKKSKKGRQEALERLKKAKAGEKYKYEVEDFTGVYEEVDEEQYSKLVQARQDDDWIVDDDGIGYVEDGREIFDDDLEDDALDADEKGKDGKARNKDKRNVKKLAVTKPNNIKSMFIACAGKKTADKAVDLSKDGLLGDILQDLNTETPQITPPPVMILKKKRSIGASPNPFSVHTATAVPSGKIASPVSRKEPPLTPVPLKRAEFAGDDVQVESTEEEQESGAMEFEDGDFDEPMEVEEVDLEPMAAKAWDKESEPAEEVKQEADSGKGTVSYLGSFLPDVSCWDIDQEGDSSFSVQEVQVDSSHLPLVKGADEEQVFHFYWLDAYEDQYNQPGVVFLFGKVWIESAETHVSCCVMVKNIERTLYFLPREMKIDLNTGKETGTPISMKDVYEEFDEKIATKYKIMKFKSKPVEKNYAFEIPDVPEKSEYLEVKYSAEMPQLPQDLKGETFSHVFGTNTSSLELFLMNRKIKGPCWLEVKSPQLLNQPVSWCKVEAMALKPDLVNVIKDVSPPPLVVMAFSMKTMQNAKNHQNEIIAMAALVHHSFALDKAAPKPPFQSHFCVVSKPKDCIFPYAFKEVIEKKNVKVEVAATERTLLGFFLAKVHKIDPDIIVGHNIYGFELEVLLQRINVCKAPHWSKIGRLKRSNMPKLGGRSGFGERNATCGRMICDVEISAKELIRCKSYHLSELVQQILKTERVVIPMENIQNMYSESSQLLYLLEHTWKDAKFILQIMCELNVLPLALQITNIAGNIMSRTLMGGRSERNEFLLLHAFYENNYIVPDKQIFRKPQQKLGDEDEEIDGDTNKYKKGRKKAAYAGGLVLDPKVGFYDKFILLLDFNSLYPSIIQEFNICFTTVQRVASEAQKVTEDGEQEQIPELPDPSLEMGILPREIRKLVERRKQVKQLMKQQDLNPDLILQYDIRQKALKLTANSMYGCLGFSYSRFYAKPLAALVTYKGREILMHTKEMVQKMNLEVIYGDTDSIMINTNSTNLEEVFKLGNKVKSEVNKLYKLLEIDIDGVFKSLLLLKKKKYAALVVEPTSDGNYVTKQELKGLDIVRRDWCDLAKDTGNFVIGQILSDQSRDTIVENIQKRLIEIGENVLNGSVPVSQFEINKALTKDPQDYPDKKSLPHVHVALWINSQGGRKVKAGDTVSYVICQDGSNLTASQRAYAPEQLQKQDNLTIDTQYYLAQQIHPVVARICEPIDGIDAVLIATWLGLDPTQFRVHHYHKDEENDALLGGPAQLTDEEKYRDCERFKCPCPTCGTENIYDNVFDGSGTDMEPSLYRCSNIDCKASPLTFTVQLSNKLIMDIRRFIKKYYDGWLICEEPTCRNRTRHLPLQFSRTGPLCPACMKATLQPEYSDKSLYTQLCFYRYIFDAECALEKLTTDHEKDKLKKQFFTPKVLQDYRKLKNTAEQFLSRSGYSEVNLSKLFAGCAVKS
substance,measurement,setting,value
"Hemitriethylamine ((2R,3S,5R)-5-(4-amino-5-fluoro-2-oxopyrimidin-1(2H)-yl)-2-ethynyl-3-hydroxytetrahydrothiophen-2-yl)methyl triphosphate [Compound 8]",DNA Pol γ SNIR,DNA polymerase γ,1.3
same,DNA Pol α SNIR,DNA polymerase α,2.6
same,Intracellular concentration in PBMC,[1]; 12 hr after intravenous 1 mg/kg compound 7,2.19 ± 0.31 µM
same,Intracellular concentration in PBMC,[1]; 24 hr after intravenous 1 mg/kg compound 7,1.34 ± 0.14 µM
same,Intracellular concentration in PBMC,[1]; 48 hr after intravenous 1 mg/kg compound 7,0.42 ± 0.06 µM
same,Intracellular concentration in PBMC,[1]; 72 hr after intravenous 1 mg/kg compound 7,BLQ
same,Intracellular concentration in PBMC,[1]; 144 hr after intravenous 1 mg/kg compound 7,BLQ
same,Intracellular concentration in PBMC,[1]; 168 hr after intravenous 1 mg/kg compound 7,BLQ
same,Calculated half life of triphosphate metabolite,"[1]; in PBMC, intravenous 1 mg/kg compound 7",Calculated half life of triphosphate metabolite: 19.8 ± 9.3 hours
same,Intracellular concentration in PBMC,[2]; 12 hr after oral 7.5 mg/kg compound 7,1.43 ± 0.45 µM
same,Intracellular concentration in PBMC,[2]; 24 hr after oral 7.5 mg/kg compound 7,1.78 ± 0.57 µM
same,Intracellular concentration in PBMC,[2]; 48 hr after oral 7.5 mg/kg compound 7,1.15 ± 0.76 µM
same,Intracellular concentration in PBMC,[2]; 72 hr after oral 7.5 mg/kg compound 7,0.47 ± 0.22 µM
same,Intracellular concentration in PBMC,[2]; 120 hr after oral 7.5 mg/kg compound 7,0.17 ± 0.01 µM
same,Intracellular concentration in PBMC,[2]; 168 hr after oral 7.5 mg/kg compound 7,0.09 ± 0.02 µM
same,Calculated half-life of triphosphate metabolite,"[2]; in PBMC, oral 7.5 mg/kg compound 7",Calculated half-life of triphosphate metabolite: 43.1 ± 19.3 hours
